Experimental data: publication PMC6731595, “The anti-parasitic agent suramin and several of its analogues are inhibitors of the DNA binding protein Mcm10” (Open Biology, 2019)
Entries after “also recorded” stand apart in the source; their conditions may differ. Counter-ions that a name gives are not always drawn.

Experiments:
[1] = target: T1, Xenopus internal domain Mcm10 (xMcm10-ID) (Xenopus laevis, UniProt Q5EAW4); assay: Fluorescence polarization HTS and dose-response assay, 5′-6FAM probe binding to xMcm10-ID; details: dose-response with repurchased or purchased compound
T1 construct: xMcm10-ID (amino acid residues 229 to 427); 6xHis (HRV 3C site) (N, cleaved yes); made in house; host or cells: E. coli BL21(DE3)
T1 sequence (Q5EAW4 229-427): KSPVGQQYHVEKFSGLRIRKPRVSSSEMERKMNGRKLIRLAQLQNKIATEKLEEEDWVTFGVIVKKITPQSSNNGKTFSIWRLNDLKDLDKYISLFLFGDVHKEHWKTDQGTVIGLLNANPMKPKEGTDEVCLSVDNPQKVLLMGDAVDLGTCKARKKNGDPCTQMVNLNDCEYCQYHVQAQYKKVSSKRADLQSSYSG
Experimental: A fluorescence polarization (FP) HTS assay was established to detect inhibitors of the binding of the 5′-6FAM 10-mer oligo probe to Mcm10. Test compounds dissolved in DMSO were added to 384-well plates (Corning 4514) using an Echo 550 acoustic dispenser (final DMSO 0.1%) to achieve a final single point screening concentration of 10 µM. Then 10 µl of 2× Xenopus internal domain Mcm10 (xMcm10-ID, final concentration 2 µM) in binding buffer (20 mM Tris HCl, 100 mM NaCl, 5% glycerol, and 0.01% triton, pH 7.5) was added using the Combi nL Multidrop dispenser. Finally, 10 µl of 2× 5′-6FAM DNA (final 12.5 nM) in binding buffer was added using the Multidrop. DMSO (0.1%, high signal) and probe only (low signal) controls were included on every plate. Plates were mixed for 2 min, incubated for 60 min at RT in the dark, and read on a CLARIOstar multimode plate reader (excitation: 482-16, emission: 530-40, dichroic filter: LP504).
The LOPAC pilot screen identified the sulfhydryl reagent 4-chloromercuribenzoic acid as an inhibitor in the fluorescence polarization (FP) assay. As there was no known Mcm10 inhibitor, 4-chloromercuribenzoic acid (30 μM) was used as a positive control on initial screening plates. Following the discovery of suramin as a Mcm10 inhibitor, suramin (7 μM) was used as a positive control on subsequent screening plates. To confirm activity, screening hits were tested in dose response experiments (8 concentrations in duplicate) using xMcm10-ID. Similar dose response experiments were conducted with suramin and its analogs to confirm activity for hMcm10-ID (1 μM) and xMcm10-FL (2 μM) and to determine selectivity relative to RPA70AB (0.4 μM). Saturation experiments for each protein were conducted using increasing concentrations of protein with a fixed probe concentration (12.5 nM). FP was measured in mP units, and ∆mP values for each well were calculated as the difference between the measured mP and the average of the “probe only” controls. […] The parallel and perpendicular mP values were also used to calculate total fluorescence intensity (TFI) determined by the sum of parallel mP + (2 x perpendicular mP). TFI was used to detect fluorescence interference by compounds [1]. […] IC50 values were calculated using the four parameter logistic equation in Prism 6.0 (GraphPad). Ki values were obtained using an online Ki calculator according to the equations of Nikolovska-Coleska (http://sw16.im.med.umich.edu/soft-ware/calc_ki/). KD values were calculated using the one site or two site binding equations in Prism 6.0 (GraphPad).

[2] = tested on: DNA replication of sperm chromatin in Xenopus egg extracts; assay: In vitro DNA replication assay in Xenopus S-phase egg extracts ([α-32P]dGTP incorporation); type: biochemical; details: 10, 50, 150 and 300 µM
Experimental: Xenopus egg extracts were prepared according to the method of Murray. Replication of sperm chromatin in S-phase egg extracts was monitored as previously described. Compounds identified by HTS were added to replication reactions immediately prior to addition of [α-^32P]dGTP (Perkin Elmer BLU514H250UC).
To determine whether the four remaining confirmed HTS hits affected DNA replication, in vitro replication assays were performed using Xenopus S-phase egg extracts incubated with sperm chromatin [25, 34]. DNA replication was measured in the presence of bronopol, fumarprotocetraric acid, iriginol and suramin or DMSO by the incorporation of [α-^32P]dGTP. […] For this reason, further studies focused on suramin alone.
Figure 1. Suramin inhibits DNA replication in an in vitro Xenopus replication assay. HTS hits were evaluated for inhibition of [α-^32P]dGTP incorporation into DNA using a cell-free extract prepared from Xenopus eggs at increasing concentrations (10, 50, 150 and 300 µM indicated by black triangle from right to left). No chemical (–) and DMSO were used as negative controls for replication inhibition (far left and far right lanes).

| Compound | inhibition of 5′-6FAM probe binding to xMcm10-ID (result in words) [1] | DNA replication, [α-32P]dGTP incorporation (result in words) [2] |
| --- | --- | --- |
| Cc1nc(/N=N/c2ccc(S(=O)(=O)O)cc2S(=O)(=O)O)c(COP(=O)(O)O)c(C=O)c1O [PPADS, pyridoxalphosphate-6-azophenyl-2’, 4’-disulfonic acid tetrasodium salt] | weakly and incompletely inhibit; also recorded: little activity |  |
| Cc1nc(/N=N/c2cc(S(=O)(=O)O)ccc2S(=O)(=O)O)c(COP(=O)(O)O)c(C=O)c1O [iso-PPADS, pyridoxalphosphate-6-azophenyl-2’, 5’-disulfonic acid tetrasodium salt] | weakly and incompletely inhibit; also recorded: little activity |  |
| Cc1ccc(C(=O)Nc2ccc(S(=O)(=O)O)c3cc(S(=O)(=O)O)cc(S(=O)(=O)O)c23)cc1NC(=O)c1cccc(NC(=O)Nc2cccc(C(=O)Nc3cc(C(=O)Nc4ccc(S(=O)(=O)O)c5cc(S(=O)(=O)O)cc(S(=O)(=O)O)c45)ccc3C)c2)c1 [suramin, suramin sodium salt] | active | dose-dependent decrease in replication products; also recorded: dose-dependent decrease in DNA replication |
